The values that follow come from patent US4596810A, “Emulsions of perfluoro octahydro quinolizines useful as blood substitutes” (The Green Cross Corporation, priority 1984, dated 1986).

In one data set the test system is Wister-strain male rats. The experiment in a line: Acute Toxicity Test (intravenous). The format is in vivo, rat. The settings on record: 100 ml/kg-body weight, isotonized emulsion (Table 4), observed one week. The method, then: The acute toxicity test on the preparations of the present invention was carried out using the preparations of the present invention shown in Table 4 which had been physiologically isotonized. The test animals used were Wister-strain male rats (weighing 100-120 g).

The nature of data set [1]: Distribution of Perfluoro-compound in Organs (gas chromatography). The class given is in vivo, Wister-strain male rats. The settings on record: for Residual Rate of perfluorobicyclo compound: 3 Months, 4 g/kg tail vein. The text has this:
The content of perfluoro-4-methyloctanhydroquinolidine uptake in each organ 1, 2 and 4 weeks and 3 months after the administration are shown in Table 5.

Each structure is given as a SMILES string.

In the case of `FC(F)(F)C(F)(F)C1(F)N2C(F)(F)C(F)(F)C(F)(F)C(F)(F)C2(F)C(F)(F)C(F)(F)C1(F)F` (centres unmarked) [perfluoro-4-ethyloctahydroquinolidine], in the data set on Wister-strain male rats, the death cases result was “no death case”.
As for `FC(F)(F)C1(F)N2C(F)(F)C(F)(F)C(F)(F)C(F)(F)C2(F)C(F)(F)C(F)(F)C1(F)F` (centres unmarked) [perfluoro-4-methyloctahydroquinolidine], in data set [1] (4 g/kg into the tail vein, 3 months), the “adverse influence on the liver or spleen organ” value was “no evidence of adverse influence on the liver or spleen organ”. The entries for the “Residual Rate of perfluorobicyclo compound” value in data set [1] (Liver) and in data set [1] (Spleen) were 0.30% and 0.09%, respectively. Also, the death cases entry with Wister-strain male rats is listed as “no death case”.
